In assay [1] the target is PKC-α (Homo sapiens, UniProt P17252). Kind of assay: Kinase-Glo Luminescent Kinase Assay, substrate myelin basic protein. The assay is classed as biochemical. Conditions: for inhibition at 150 µM: PRE 4 150 μM; for inhibition at 300 µM: PRE 4 300 μM; for inhibition at 600 µM: PRE 4 600 μM. Here is the method: The ability of peptide PRE 4 (see Table 3) to inhibit the activity of PKC-α was tested using increasing concentrations of PRE 4 and the Kinase-Glo™ Luminescent Kinase Assay (Promega, Cat # V6712/3/4) following the manufacturer's instructions. Briefly, the assay is based on the Luciferase luminescent reaction with ATP. The substrate was myelin basic protein (MBP, a classical substrate of the PKC family). ATP was added to the PKC-α reaction solution at a given concentration and the remaining ATP was measured by luminescence. Luminescence of blank solutions, ATP provided at the beginning of the reaction and PKC-α activity in the presence or absence of PRE 4 were measured.
Blanks are subtracted from all values.
ATP remaining in all reactions was subtracted from the ATP values at the start=relative enzyme activity (Ea).
The relative activities were all measured and the Ea in the presence of PRE 4 are reported relative to the Ea of PKC-α alone taken as 100. The difference between 100 and the % Ea of PKC-α exposed to PRE 4 represents the relative level of inhibition.

Assay [2] deals with PKC-β. Kind of assay: In vitro competition with anti-PKC-β antibody, Protocol B, IMR-32 cells. The assay is classed as binding, human. Particulars: PKC-β, IMR-32, Table 8. Here is the method: The ability of the peptides PRE 2 and PRE 3 (see Table 3) to interfere with the binding of a PKC-α-specific polyclonal antibody (Santa Cruz Biotechnology, Inc.) to PKC-α was determined using a modified version of the protocol outlined above in which the test peptide was added directly to the cell extract prior to electrophoresis at a concentration of either 5× or 15× the concentration of the protein applied to each well of the gel for the Western blots (20 μg).
Peptides PRE 2 and PRE 3 (see Table 3) were tested for their ability to interfere with the binding of a PKC-β-specific polyclonal antibody (Santa Cruz Biotechnology, Inc.) to PKC-β using the general protocol described in Example 3.

The target in assay [3] is T1, PKC-α (Rattus norvegicus, UniProt P05696).
T1 construct: Cell lysates from either IMR-32 (human neuroblastoma) cells or C6Cx43 cells; endogenous in cells; host or cells: C6Cx43 (rat glioma transfected with connexin 43)
Kind of assay: In vitro competition with anti-PKC-α antibody on blotted cell lysate, Protocol A, C6Cx43 cells. The format is binding. The method, then:
The ability of the peptides to interfere with the binding of a PKC-α-specific monoclonal antibody to PKC-α was determined using the following protocol.
Cell lysates from either IMR-32 (human neuroblastoma) cells or C6Cx43 cells (rat glioma transfected cells overexpressing connexin 43) were obtained using standard protocols and the proteins of the lysate were separated by SDS PAGE electrophoresis and electrotransferred onto a nitrocellulose membrane. […] A primary polyclonal antibody specific for PKC-α (Santa Cruz Biotechnology, Inc., CA) was then added (15 μg/ml) and the membrane incubated for a further 45 minutes. Finally, the primary antibody was detected with a secondary antibody conjugated to alkaline phosphatase using standard procedures. The intensity of the band corresponding to PKC-α was assessed by scanning and densitometry using the Gel-Pro software (Media Cybernetics) to obtain relative band intensities (average of 3 replicas). Control assays were conducted as described above except that blocking buffer without peptide was used.
The results are expressed as relative band intensity and as a percentage of the intensity of the corresponding band in the control assay (“Relative intensity (%)”). “% inhibition” relates to the percentage of the PKC-α band that is inaccessible to the antibody.

On to “Ac-KDAQNLIGISI-NH2 [PRE 4, Ac-KDAQNLIGISI-NH2]”, for which the inhibition at 150 µM in assay [1] (Experiment 1) was 6.15%; in assay [1] (Experiment 2) it was 28.9%; in assay [1] (Experiment 3), 40.1%. Further, the values for the inhibition at 300 µM in assay [1] (Experiment 1), in assay [1] (Experiment 2) and in assay [1] (Experiment 3) were 9.76%, 40.7% and 35.5%, respectively. The values for the inhibition at 600 µM in assay [1] (Experiment 1), in assay [1] (Experiment 2) and in assay [1] (Experiment 3) were 16.4%, 53.5% and 41.6%, respectively.

For Ac-AKGIQEVKGGDAQNLIGISI-NH2 [PRE 3], the “Band Intensity” value in assay [2] (100 μg) is 0.0; in assay [2] (200 μg) it was 0.0; in assay [2] (300 μg) it was 0.0; in assay [3] (75 μg, Table 5), 0.909; in assay [3] (300 μg, Table 5), 0.888; in assay [3] (600 μg, Table 5), 0.889. The “Band Intensity” value worked out at 0.603 in assay [3] (3.75 mg, Table 5); 0.599 in assay [3] (5.25 mg, Table 5); 0.589 in assay [3] (7.5 mg, Table 5). The “Inhibition (%)” value in assay [2] (100 μg), in assay [2] (200 μg) and in assay [2] (300 μg) was 100.0% each time. Further, the “Relative Intensity (%)” value in assay [2] (100 μg), in assay [2] (200 μg) and in assay [2] (300 μg) was 0.0% throughout. In assay [3] (75 μg, Table 5), the inhibition at 0.075 mg amounted to 0%. The remaining activity at 0.075 mg in assay [3] (75 μg, Table 5, read-out: Relative Intensity (%)) was 98%. In addition, the inhibition at 0.3 mg in assay [3] (300 μg, Table 5) was found to be 0%. Besides, the remaining activity at 0.3 mg in assay [3] (300 μg, Table 5, read-out: Relative Intensity (%)) is 95.8%. The inhibition at 0.6 mg in assay [3] (600 μg, Table 5) was determined as 0%. The remaining activity at 0.6 mg in assay [3] (600 μg, Table 5, read-out: Relative Intensity (%)) stood at 95.9%. In addition, the remaining activity at 3.75 mg in assay [3] (3.75 mg, Table 5, read-out: Relative Intensity (%)) amounted to 105%. In addition, the remaining activity at 5.25 mg in assay [3] (5.25 mg, Table 5, read-out: Relative Intensity (%)) was 105%. The same substance had an inhibition at 7.5 mg in assay [3] (7.5 mg, Table 5) of 0%. In assay [3] (7.5 mg, Table 5, read-out: Relative Intensity (%)), the remaining activity at 7.5 mg amounted to 103%.

(Values after US20100041597A1, “PEPTIDES TARGETED TO PROTEIN KINASE C ISOFORMS AND USES THEREOF” (priority 2005, published 2010).)
